{
  "source": "patent US12553037B2",
  "about": "“Engineered class 2, type V repressor systems” (Scribe Therapeutics Inc., priority 2021, dated 2026)",
  "tested_on": "B2M gene",
  "assay": "B2M reactivation by 5-azadC in cells silenced by ELXR5-ZIM3 or CasX 491 (Example 12)",
  "details": "0 μM to 20 μM 5-azadC; B2M-targeting gRNA",
  "data": [
    {"compound": "Nc1ncn([C@H]2C[C@H](O)[C@@H](CO)O2)c(=O)n1", "note": "[5-azadC, 5-aza-2′-deoxycytidine, reference compound]", "values": [
      {"measurement": "reactivation of the B2M gene upon 5-azadC treatment", "result": "reactivation of the B2M gene"}
    ]}
  ]
}
